These results are taken from US10058525B2, “Application of chlorogenic acid in preparing medicines for treating lupus erythematosus” (SICHUAN JIUZHANG BIOLOGICAL SCIENCE AND TECHNOLOGY CO., LTD., priority 2015, dated 2018).

Holding throughout (format): in vivo, BALB/c mice
The subject of assay [1] is ANA. Briefly: Serologic detection of ANA by immunofluorescence on HEp-2 cell sheets, serum of UV + LPS lupus model mice. The arrangement: key: (+): positive; (−): negative; (++++): intense fluorescence; (+++): stronger fluorescence; (++): weeker fluorescence. The conditions noted are these: intragastric. The procedure:
(§1) The back of mice was shaved and acutely exposed to Ultraviolet of 2 h/d*3 d, with a distance of 30 cm. After exposure to UV, 2.5 mg/kg of LPS was administrated once by ip, and after 24 h, the model was successfully established; the mice in the normal control group received normal saline via ip. 24 h after injection of LPS (ip), medicines were given to the model mice by intragastric administration. Chlorogenic acid test groups received high, middle, and low doses of medicines, by intragastric administration at a respective dosage of 10 mg/kg*d, 20 mg/kg*d, and 40 mg/kg*d. The positive control group A received 2 mg/kg*d of artesunate by stomach perfusion, while the positive control group B received 1 mg/kg*d of prednisone by stomach perfusion. Mice in the model and normal control group all received 0.4 ml/mouse normal saline by gavage. After 15 days of administration, animals in each group were taken blood by separating eyeballs on days 14, 21, 28, and after cultured in water bath at 37° C. for 1 h, the blood sample was centrifugated at 2000 r/min for 5 min, to draw serum for use. On day 21, after blood collection, animals were sacrificed by dislocation, followed by collection of liver and kidney, and they were placed in fixative solutions of electron microscope and light microscrope, respectively. Serum of mice was diluted at 1:100 with special buffer solution of Shenzhen Hengjia, and then 200 μL of diluted serum was respectively added to the reactive tank with corresponding number, cultured in the incubator at 37° C. for 30 min, and washed with the buffer solution four times, 2 min for each time; 200 μL of diluted biotin goat anti-mouse IgG (1:100) was added, cultured in the incubator at 37° C. for 30 min, and then washed with the buffer solution four times, 2 min for each time; 100 μL of diluted HRP-avidin (1:100) was added, cultured in the incubator at 37° C. for 30 min, and then washed as mentioned-above; reactive solutions A and B were added till appearance of positive bands, then washed with the buffer solution. Compared with the standard bands of ENA polypeptide antibody spectrum in the same kit, if the positive bands appeared at 28/29,13.5 ku polypeptide; 15,16.5,38 kupolypeptide; 52 kupolypeptide and 47/48,45 kupolypeptide, that can be determined as anti-Sm, anti-Rib, anti-ssA, and anti-ssB positive antibody. Serum was diluted with PBS at 1:40, then 20-30 μL of diluted serum was dropped into the scrobiculus of HEp-2 cell sheets, each cell sheet for each group. In the process of dropping serum, it should be noted that the surface of cell sheet can not be touched. After addition of serum, cell sheet was placed in wet box and kept for 30 min at room temperature (25° C.). After 30 min, the cell sheet was taken out, and serum was carefully washed out with PBS, then carefully washed twice with PBS, 5 min for each time; after washing, the remained PBS was removed by special absorbent paper of […] company (In this process, it should be noted that becoming dry of cell substrates will affect the results). 20-30 μL of diluted (PBS, 1:100) FITC goat anti-mouse IgG was added by dropping, and then incubated in wet box at room temperature for 30 min. After washing with PBS, steps were same to above. The remained PBS was removed by absorbent paper, and 1-2 drops of fluorescent mounting media were added to the cell sheet. The cover glass was mounted, observed under Olympus BH-2 universal microscope, and then photographed.

Assay [2] has as its system ANA. The assay is described as above. Further details: key: (+): positive; (−): negative; (++++): intenseintensity; (+++): stronger fluorescent intensity. The conditions noted are these: day 14, intragastric. On the procedure: as §1
Assay [3] relates to ANA. The description is as above. As to conditions: chlorogenic acid high dose, ×200. The procedure:
The back of mice was shaved and acutely exposed to Ultraviolet of 2 h/d*3 d, with a distance of 30 cm. After exposure to UV, 2.5 mg/kg of LPS was administrated once by ip, and after 24 h, the model was successfully established; the mice in the normal control group received normal saline via ip. 24 h after injection of LPS (ip), medicines were given to the model mice by intragastric administration. Chlorogenic acid test groups received high, middle, and low doses of medicines, by intragastric administration at a respective dosage of 10 mg/kg*d, 20 mg/kg*d, and 40 mg/kg*d. The positive control group A received 2 mg/kg*d of artesunate by stomach perfusion, while the positive control group B received 1 mg/kg*d of prednisone by stomach perfusion. Mice in the model and normal control group all received 0.4 ml/mouse normal saline by gavage. After 15 days of administration, animals in each group were taken blood by separating eyeballs on days 14, 21, 28, and after cultured in water bath at 37° C. for 1 h, the blood sample was centrifugated at 2000 r/min for 5 min, to draw serum for use. On day 21, after blood collection, animals were sacrificed by dislocation, followed by collection of liver and kidney, and they were placed in fixative solutions of electron microscope and light microscrope, respectively. Serum of mice was diluted at 1:100 with special buffer solution of Shenzhen Hengjia, and then 200 μL of diluted serum was respectively added to the reactive tank with corresponding number, cultured in the incubator at 37° C. for 30 min, and washed with the buffer solution four times, 2 min for each time; 200 μL of diluted biotin goat anti-mouse IgG (1:100) was added, cultured in the incubator at 37° C. for 30 min, and then washed with the buffer solution four times, 2 min for each time; 100 μL of diluted HRP-avidin (1:100) was added, cultured in the incubator at 37° C. for 30 min, and then washed as mentioned-above; reactive solutions A and B were added till appearance of positive bands, then washed with the buffer solution. Compared with the standard bands of ENA polypeptide antibody spectrum in the same kit, if the positive bands appeared at 28/29,13.5 ku polypeptide; 15,16.5,38 kupolypeptide; 52 kupolypeptide and 47/48,45 kupolypeptide, that can be determined as anti-Sm, anti-Rib, anti-ssA, and anti-ssB positive antibody. Serum was diluted with PBS at 1:40, then 20-30 μL of diluted serum was dropped into the scrobiculus of HEp-2 cell sheets, each cell sheet for each group. In the process of dropping serum, it should be noted that the surface of cell sheet can not be touched. After addition of serum, cell sheet was placed in wet box and kept for 30 min at room temperature (25° C.). […]

Assay [4] has as its system lupus erythematosus model mice (renal glomerular capsule wall epithelial cells). Briefly: Electron microscope observation of kidney samples, lupus model mice. The conditions noted are these: 21 days. The procedure:
The back of mice was shaved and acutely exposed to Ultraviolet of 2 h/d*3 d, with a distance of 30 cm. After exposure to UV, 2.5 mg/kg of LPS was administrated once by ip, and after 24 h, the model was successfully established; the mice in the normal control group received normal saline via ip. 24 h after injection of LPS (ip), medicines were given to the model mice by intragastric administration. Chlorogenic acid test groups received high, middle, and low doses of medicines, by intragastric administration at a respective dosage of 10 mg/kg*d, 20 mg/kg*d, and 40 mg/kg*d. The positive control group A received 2 mg/kg*d of artesunate by stomach perfusion, while the positive control group B received 1 mg/kg*d of prednisone by stomach perfusion. Mice in the model and normal control group all received 0.4 ml/mouse normal saline by gavage. After 15 days of administration, animals in each group were taken blood by separating eyeballs on days 14, 21, 28, and after cultured in water bath at 37° C. for 1 h, the blood sample was centrifugated at 2000 r/min for 5 min, to draw serum for use. On day 21, after blood collection, animals were sacrificed by dislocation, followed by collection of liver and kidney, and they were placed in fixative solutions of electron microscope and light microscrope, respectively. On day 21, the sample used for observation under electron microscope was fixed in mixed stationary solution of 2% paraformaldehyde+0.25% glutaral for 4 h, rinsed with TBS, treated with 1% osmic acid, followed by fixation for 1 h, rinsed with buffer solution, dehydrated with acetone, dyed with uranyl acetate for 2 h, macerated in Epon812 and embedded, and cut into slices with LEICA ultramicrotome. The slices were stained with lead solution, and the sample was observed under transmission electron microscope when it was dry.

Molecules are shown by their SMILES. Entries after “also recorded” stand apart in the source; their conditions may differ.

For `O=C(/C=C/c1ccc(O)c(O)c1)O[C@@H]1C[C@](O)(C(=O)O)C[C@@H](O)[C@H]1O` [Chlorogenic acid, 3-O-caffeoylquinic acid], the ANA result in the assay on ANA [1] (day 21, chlorogenic acid high dose) is “(++)”; in the assay with ANA [1] (day 21, chlorogenic acid low dose) it was “(+++)”; with ANA [1] (day 21, chlorogenic acid middle dose), “(++)”; in the assay with ANA [1] (day 28, chlorogenic acid high dose), “(++)”; in the assay on ANA [1] (day 28, chlorogenic acid low dose), “(+++)”; with ANA [1] (day 28, chlorogenic acid middle dose), “(++)”. Moreover, the ANA result was “(+++)” with ANA [2] (chlorogenic acid high dose), “(++++)” in the assay with ANA [2] (chlorogenic acid low dose) and “(+++)” in the assay on ANA [2] (chlorogenic acid middle dose). Also, the “fluorescence intensity of ANA (FIG. 2)” value in the assay on ANA [3] (14 days) is “decreases”. Moreover, the “fluorescence intensity of ANA (FIG. 3)” value in the assay with ANA [3] (21 days) was “decreases”. For the same molecule, in the assay with ANA [3] (28 days), the “fluorescence intensity of ANA (FIG. 4)” value is recorded as “decreases”. Further, the “proliferative degree of renal glomerular capsule wall epithelial cells” value in assay [4] (chlorogenic acid (all dose groups)) is “somewhat relieved”. Moreover, the “proliferative degree of glomerular capsule wall epithelial cells” value in assay [4] (high-dose group of chlorogenic acid) was “somewhat relieves; also recorded: the release degree in high dose group was the most obvious”.
